Test results: ChEMBL document CHEMBL3091441, “Ligand modifications to reduce the relative resistance of multi-drug resistant HIV-1 protease” (Bioorg Med Chem, 2013)
*1 amine or outer side, *2 acyl side, *3 side chain or, on linkers, in order; H or OH if unused. Where a SMILES comes first, the peptide text is derived from it. Side-chain parts run from the residue outwards. [ ]: non-standard residue; d: D form. N(2S-amino-4-Me-pentyl)Phe = CC(C)C[C@@H](CN([C@@H](Cc1ccccc1)C(=O)[*:2])[*:1])N[*:3]; N(2S-NH-3-Ph-propyl)Phe = O=C([C@H](Cc1ccccc1)N(C[C@H](Cc1ccccc1)N[*:3])[*:1])[*:2]; Nle = CCCC[C@H](N)C(=O)O

Experiments:
[1] = tested on: Human immunodeficiency virus 1; test: Ratio of IC50 for HIV-1 multidrug-resistant protease 769 to IC50 for HIV-1 NL4-3 wild type protease
Protease = Protease (Human immunodeficiency virus 1, UniProt Q9YQ12); test: Inhibition of HIV-1 NL4-3 wild type protease expressed in Escherichia coli preincubated for 20 mins by FRET analysis
Protease, sequence (Q9YQ12 whole entry): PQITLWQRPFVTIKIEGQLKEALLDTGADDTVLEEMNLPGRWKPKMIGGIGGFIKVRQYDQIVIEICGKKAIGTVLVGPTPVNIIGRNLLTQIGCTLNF

[2] = Inhibition of HIV-1 multidrug-resistant protease 769 preincubated for 20 mins by FRET analysis; parameters: species or system Human immunodeficiency virus 1

Structure (SMILES)	Ratio IC50 [1]	IC50 (Protease) [nM]	IC50 [2] [nM]
Cc1cccc(C)c1OCC(=O)N[C@@H](Cc1ccccc1)[C@@H](O)C[C@H](CC(C)C)NC(=O)[C@H](C(C)C)N1CCCNC1=O	3.2	2.1	6.8
CCCC[C@H](NC(=O)CNC(=O)[C@H](CCC(=O)O)NC(=O)[C@H](Cc1ccccc1)NC[C@H](Cc1ccccc1)NC(=O)[C@@H](NC(=O)[C@@H](N)CCCNC(=N)N)C(C)C)C(=O)O (H-[N(2S-NH-3-Ph-propyl)Phe]([Val-Arg])EG[Nle]-OH)	4.6	30.7	142
CCCC[C@H](NC(=O)CNC(=O)[C@H](CCC(=O)O)NC(=O)[C@H](Cc1ccccc1)NC[C@H](CC(C)C)NC(=O)[C@@H](NC(=O)[C@@H](N)CCCNC(=N)N)C(C)C)C(=O)O (H-[N(2S-amino-4-Me-pentyl)Phe]([Val-Arg])EG[Nle]-OH)	1.7	2.6	4.4
Cc1cccc(C)c1OCC(=O)N[C@@H](Cc1ccccc1)[C@@H](O)C[C@H](Cc1ccccc1)NC(=O)[C@H](C(C)C)N1CCCNC1=O [LOPINAVIR]	–	–	16
